From patent publication US10105357B2, “Indication of antibiotic drugs for preparation of cancer inhibition pharmaceutical composition” (LAUNX BIOMEDICAL CO., LTD., priority 2014, dated 2018)
Read-outs that look alike come from different tables or passages of the source.

Assays:
[1] = test system: HI650 (Lung Adenocarcinoma); test: Cell viability analysis, lung cancer HI650; assay type: cell-based, human; details: Homo sapiens, NCI-H1650, 72 h
[2] = test system: A549 (Lung Adenocarcinoma); test: Cell viability analysis, lung cancer A549; assay type: cell-based, human; details: Homo sapiens, A549, 72 h
[3] = test system: AGS (Gastric Adenocarcinoma); test: Cell viability analysis, gastric cancer AGS; assay type: cell-based, human; details: Homo sapiens, 72 h
[4] = test system: MKN-45 (Gastric Adenocarcinoma); test: Cell viability analysis, gastric cancer MKN-45; assay type: cell-based, human; details: Homo sapiens, MKN-45, 72 h
[5] = test system: HepG2 (Hepatocellular Carcinoma); test: Cell viability analysis, hepatic cancer HepG2; assay type: cell-based, human; details: Homo sapiens, HepG2, 72 h
[6] = test system: Hep3B (hepatocellular carcinoma); test: Cell viability analysis, hepatic cancer Hep3B; assay type: cell-based, human; details: Homo sapiens, Hep3B, 72 h, read-out: The results of antibiotic drug inhibiting cancer cell lines (cell viability analysis), Hep3B
[7] = test system: LoVo (Colorectal Adenocarcinoma); test: Cell viability analysis, colon cancer LoVo; assay type: cell-based, human; details: Homo sapiens, LoVo, 72 h
[8] = test system: A375 (Amelanotic Melanoma); test: Cell viability analysis, skin cancer A375; assay type: cell-based, human; details: Homo sapiens, A-375, 72 h
[9] = test system: HeLa (Cervix Adenocarcinoma); test: Cell viability analysis, cervical cancer HeLa; assay type: cell-based, human; details: Homo sapiens, HeLa, 72 h
[10] = test system: C-33A (Cervical carcinoma); test: Cell viability analysis, cervical cancer C-33A; assay type: cell-based, human; details: Homo sapiens, C-33-A, 72 h, read-out: The results of antibiotic drug inhibiting cancer cell lines (cell viability analysis), C-33A
[11] = test system: PC3 (p53−) (Prostate Adenocarcinoma); test: Cell viability analysis, prostate cancer PC3; assay type: cell-based, human; details: Homo sapiens, 72 h
[12] = test system: TSGH-8301 (Urinary Bladder Carcinoma); test: Cell viability analysis, bladder cancer TSGH-8301; assay type: cell-based, human; details: Homo sapiens, 72 h
[13] = test system: T24; test: Cell viability analysis, bladder cancer T24; assay type: cell-based, human; details: Homo sapiens, T-24, 72 h, read-out: The results of antibiotic drug inhibiting cancer cell lines (cell viability analysis), T24
[14] = test system: MCF7 (Mammary Gland, Adenocarcinoma); test: Cell viability analysis, breast cancer MCF7; assay type: cell-based, human; details: Homo sapiens, MCF7, 72 h
[15] = test system: MDA-MB-231 (Mammary Gland, Adenocarcinoma); test: Cell viability analysis, breast cancer MDA-MB-231; assay type: cell-based, human; details: Homo sapiens, MDA-MB-231, 72 h, read-out: The results of antibiotic drug inhibiting cancer cell lines (cell viability analysis), MDA-MB231
[16] = test system: BxPC-3; test: Cell viability analysis, pancreatic cancer BxPC-3; assay type: cell-based, human; details: Homo sapiens, BXPC-3, 72 h, read-out: The results of antibiotic drug inhibiting cancer cell lines (cell viability analysis), BxPC-3
[17] = test system: AsPC-1; test: Cell viability analysis, pancreatic cancer AsPC-1; assay type: cell-based, human; details: Homo sapiens, ASPC1, 72 h, read-out: The results of antibiotic drug inhibiting cancer cell lines (cell viability analysis), AsPC-1
[18] = test system: NIH: OVCAR-3; test: Cell viability analysis, ovarian cancer NIH: OVCAR-3; assay type: cell-based, human; details: Homo sapiens, OVCAR-3, 72 h, read-out: The results of antibiotic drug inhibiting cancer cell lines (cell viability analysis), NIH-OVCAR-3
[19] = test system: TOV-21G; test: Cell viability analysis, ovarian cancer TOV-21G; assay type: cell-based, human; details: Homo sapiens, TOV21G, 72 h, read-out: The results of antibiotic drug inhibiting cancer cell lines (cell viability analysis), TOV-21G
[20] = test system: SAS (Tongue squamous cell carcinoma); test: Cell viability analysis, tongue cancer SAS; assay type: cell-based, human; details: Homo sapiens, 72 h, read-out: The results of antibiotic drug inhibiting cancer cell lines (cell viability analysis), SAS
[21] = test system: U-2OS; test: Cell viability analysis, osteosarcoma U-2OS; assay type: cell-based, human; details: Homo sapiens, U2OS, 72 h, read-out: The results of antibiotic drug inhibiting cancer cell lines (cell viability analysis), U2OS
[22] = test system: 786-O (Renal adenocarcinoma); test: Cell viability analysis, renal cancer 786-O; assay type: cell-based, human; details: Homo sapiens, 786-0, 72 h, read-out: The results of antibiotic drug inhibiting cancer cell lines (cell viability analysis), 786-O
[23] = test system: HL-60 (Acute Promyelocytic Leukemia); test: Cell viability analysis, leukemia HL-60; assay type: cell-based, human; details: Homo sapiens, HL-60, 72 h, read-out: cell viability (survival rate), HL-60, drug 10 μM, 72 hours, WST-1, OD450 nm
[24] = test system: HCT116 (p53+) (Colorectal Carcinoma)
[25] = test system: cancer cell lines; test: Cell viability analysis (WST-1) on cancer cell lines; assay type: cell-based, human; details: drug 10 μM, 72 hours, WST-1; Table 3
[26] = test system: BCC (basal cell carcinoma); test: Cell viability analysis, skin cancer BCC; assay type: cell-based, human; details: Homo sapiens, 72 h, read-out: The results of antibiotic drug inhibiting cancer cell lines (cell viability analysis), BCC
[27] = read-out: The results of antibiotic drug inhibiting cancer cell lines (cell viability analysis), H1650, H1650, repeated experiment
[28] = read-out: cell viability (survival rate), H1650, drug 10 μM, 72 hours, WST-1, OD450 nm
[29] = read-out: The results of antibiotic drug inhibiting cancer cell lines (cell viability analysis), A549, A549, repeated experiment
[30] = read-out: cell viability (survival rate), A549, drug 10 μM, 72 hours, WST-1, OD450 nm
[31] = read-out: The results of antibiotic drug inhibiting cancer cell lines (cell viability analysis), AGS, repeated experiment
[32] = read-out: cell viability (survival rate), AGS, drug 10 μM, 72 hours, WST-1, OD450 nm
[33] = read-out: The results of antibiotic drug inhibiting cancer cell lines (cell viability analysis), MKN-45, MKN-45, repeated experiment
[34] = read-out: cell viability (survival rate), MKN-45, drug 10 μM, 72 hours, WST-1, OD450 nm
[35] = read-out: The results of antibiotic drug inhibiting cancer cell lines (cell viability analysis), HepG2, HepG2, repeated experiment
[36] = read-out: cell viability (survival rate), HepG2, drug 10 μM, 72 hours, WST-1, OD450 nm
[37] = read-out: The results of antibiotic drug inhibiting cancer cell lines (cell viability analysis), LoVo, repeated experiment
[38] = read-out: cell viability (survival rate), LoVo, drug 10 μM, 72 hours, WST-1, OD450 nm
[39] = read-out: The results of antibiotic drug inhibiting cancer cell lines (cell viability analysis), A375, A375, repeated experiment
[40] = read-out: cell viability (survival rate), A375, drug 10 μM, 72 hours, WST-1, OD450 nm
[41] = read-out: The results of antibiotic drug inhibiting cancer cell lines (cell viability analysis), HeLa, repeated experiment
[42] = read-out: cell viability (survival rate), HeLa, drug 10 μM, 72 hours, WST-1, OD450 nm
[43] = read-out: The results of antibiotic drug inhibiting cancer cell lines (cell viability analysis), PC-3, PC-3, repeated experiment
[44] = read-out: cell viability (survival rate), PC3, drug 10 μM, 72 hours, WST-1, OD450 nm
[45] = read-out: The results of antibiotic drug inhibiting cancer cell lines (cell viability analysis), TSGH-8301, TSGH-8301, repeated experiment
[46] = read-out: cell viability (survival rate), TSGH, drug 10 μM, 72 hours, WST-1, OD450 nm
[47] = read-out: The results of antibiotic drug inhibiting cancer cell lines (cell viability analysis), MCF-7, MCF-7, repeated experiment
[48] = read-out: cell viability (survival rate), MCF7, drug 10 μM, 72 hours, WST-1, OD450 nm

Compound | viability at 10 µM [1, 27] | viability at 10 µM [1, 28] | viability at 10 µM [2, 29] | viability at 10 µM [2, 30] | viability at 10 µM [3, 31] | viability at 10 µM [3, 32] | viability at 10 µM [4, 33] | viability at 10 µM [4, 34] | viability at 10 µM [5, 35] | viability at 10 µM [5, 36] | viability at 10 µM [6] | viability at 10 µM [7, 37] | viability at 10 µM [7, 38] | viability at 10 µM [8, 39] | viability at 10 µM [8, 40] | viability at 10 µM [9, 41] | viability at 10 µM [9, 42] | viability at 10 µM [10] | viability at 10 µM [11, 43] | viability at 10 µM [11, 44] | other results
Cc1cc2c(s1)Nc1ccccc1N=C2N1CCN(C)CC1 [Olanzapine (Zyprexa), Olanzapine] | 107% | 109% | 106% | 88% | 122% | 84.2% | 125% | 80.1% | 114% | 93.3% | 132% | 81.4% | 88.5% | 98.3% | 91.9% | 121% | 106% | 98.2% | 113% | 92.2% | viability at 10 µM [12, 45]: 152%; viability at 10 µM [12, 46]: 58.7%; viability at 10 µM [13]: 110%; viability at 10 µM [14, 47]: 86.8%; viability at 10 µM [14, 48]: 125%; viability at 10 µM [15]: 111%; viability at 10 µM [16]: 65.9%; viability at 10 µM [17]: 84.2%; viability at 10 µM [18]: 96.8%; viability at 10 µM [19]: 105%; viability at 10 µM [20]: 59.3%; viability at 10 µM [21]: 66%; viability at 10 µM [22]: 91.8%; viability at 10 µM [23]: 118%; viability [24]: 124%
Cc1noc(NS(=O)(=O)c2ccc(N)cc2)c1C [Sulfisoxazole] | 75.9% | 73.9% | 105% | 39.4% | 108% | 88.7% | 105% | 48.4% | 122% | 108% | 110% | 112% | 68.8% | 107% | 65.5% | 120% | 78.9% | 116% | 111% | 36.1% | inhibition effect on different cancer cell lines [25]: significant inhibition effect; viability at 10 µM [26]: 102%; viability at 10 µM [12, 45]: 105%; viability at 10 µM [12, 46]: 93%; viability at 10 µM [13]: 90.7%; viability at 10 µM [14, 47]: 106%; viability at 10 µM [14, 48]: 46.1%; viability at 10 µM [15]: 104%; viability at 10 µM [16]: 67.1%; viability at 10 µM [17]: 80.1%; viability at 10 µM [18]: 108%; viability at 10 µM [19]: 84.5%; viability at 10 µM [21]: 88.6%; viability at 10 µM [22]: 93.3%; viability at 10 µM [23]: 95.2%; viability [24]: 97.9%
C=C1[C@H](CO)[C@@H](O)C[C@@H]1n1cnc2c(=O)[nH]c(N)nc21 [Entecavir hydrate] | 84.1% | 80.8% | 104% | 57.4% | 88.7% | 46.4% | 92.5% | 59.7% | 88.9% | 98.8% | 90.8% | 96.7% | 91.6% | 89% | 98.6% | 76.9% | 99.4% | 96.7% | 118% | 81.2% | inhibition effect on different cancer cell lines [25]: significant inhibition effect; viability at 10 µM [26]: 69.5%; viability at 10 µM [12, 45]: 103%; viability at 10 µM [12, 46]: 53%; viability at 10 µM [13]: 96.4%; viability at 10 µM [14, 47]: 92.9%; viability at 10 µM [14, 48]: 58.6%; viability at 10 µM [15]: 98.9%; viability at 10 µM [16]: 97.2%; viability at 10 µM [17]: 98.4%; viability at 10 µM [18]: 109%; viability at 10 µM [19]: 85.5%; viability at 10 µM [21]: 85.3%; viability at 10 µM [22]: 92.7%; viability at 10 µM [23]: 74.1%; viability [24]: 99.9%
CC1(C)S[C@@H]2[C@H](NC(=O)Cc3ccccc3)C(=O)N2[C@H]1C(=O)O [Benzylpenicillin sodium] | 121% | 57.1% | 97.2% | 36.4% | 110% | 54.8% | 124% | 43.1% | 108% | 86.4% | 113% | 78.3% | 62.8% | 113% | 51.7% | 107% | 57.1% | 110% | 106% | 36.1% | inhibition effect on different cancer cell lines [25]: significant inhibition effect; viability at 10 µM [26]: 97.7%; viability at 10 µM [12, 45]: 131%; viability at 10 µM [12, 46]: 39.6%; viability at 10 µM [13]: 108%; viability at 10 µM [14, 47]: 86.9%; viability at 10 µM [14, 48]: 31.3%; viability at 10 µM [15]: 94.7%; viability at 10 µM [16]: 95.3%; viability at 10 µM [18]: 110%; viability at 10 µM [19]: 112%; viability at 10 µM [20]: 67%; viability at 10 µM [21]: 71.5%; viability at 10 µM [22]: 93.2%; viability at 10 µM [23]: 86.7%; viability [24]: 94%
